The target of this assay is T1, human RXFP1 (Homo sapiens, UniProt Q9HBX9).
T1 construct: expressed in transfected cells
T1 sequence (Q9HBX9 1-757): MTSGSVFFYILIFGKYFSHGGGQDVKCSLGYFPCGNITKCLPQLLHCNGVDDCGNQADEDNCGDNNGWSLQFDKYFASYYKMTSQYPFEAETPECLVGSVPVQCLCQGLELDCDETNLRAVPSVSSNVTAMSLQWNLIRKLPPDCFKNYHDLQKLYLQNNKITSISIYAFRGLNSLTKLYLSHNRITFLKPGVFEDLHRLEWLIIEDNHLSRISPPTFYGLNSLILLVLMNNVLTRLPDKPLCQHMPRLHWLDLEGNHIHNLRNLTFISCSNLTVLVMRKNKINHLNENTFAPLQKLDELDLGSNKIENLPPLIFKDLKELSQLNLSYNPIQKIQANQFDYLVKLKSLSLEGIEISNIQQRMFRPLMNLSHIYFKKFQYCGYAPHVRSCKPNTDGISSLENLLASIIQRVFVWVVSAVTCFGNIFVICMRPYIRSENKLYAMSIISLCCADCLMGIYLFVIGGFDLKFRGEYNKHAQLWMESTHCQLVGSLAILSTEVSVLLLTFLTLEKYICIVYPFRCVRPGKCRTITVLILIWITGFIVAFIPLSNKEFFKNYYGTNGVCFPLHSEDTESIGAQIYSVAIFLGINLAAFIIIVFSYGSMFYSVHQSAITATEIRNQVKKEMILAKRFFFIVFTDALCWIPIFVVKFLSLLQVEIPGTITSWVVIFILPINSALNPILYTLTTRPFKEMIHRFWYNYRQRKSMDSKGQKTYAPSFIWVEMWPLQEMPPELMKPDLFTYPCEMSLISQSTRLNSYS
The assay can be described thus: hRXFP1 HEK293 cAMP assay (HTRF). The conditions noted are these: HEK293 cells stably expressing human RXFP1. It is filed as cell-based. The protocol:
RXFP1 Cyclic Adenosine Monophosphate (cAMP) Assays. Human embryonic kidney cells 293 (HEK293) cells and HEK293 cells stably expressing human RXFP1, were cultured in MEM medium supplemented with 10% qualified FBS, and 300 μg/ml hygromycin (Life Technologies). Cells were dissociated and suspended in assay buffer. The assay buffer was HBSS buffer (with calcium and magnesium) containing 20 mM HEPES, 0.05% BSA, and 0.5 mM IBMX. Cells (3000 cells per well, except 1500 cell per well for HEK293 cells stably expressing human RXFP1) were added to 384-well Proxiplates (Perkin-Elmer). Cells were immediately treated with test compounds in DMSO (2% final) at final concentrations in the range of 0.010 nM to 50 μM. Cells were incubated for 30 min at room temperature. The level of intracellular cAMP was determined using the HTRF HiRange cAMP assay reagent kit (Cisbio) according to manufacturer's instructions. Solutions of cryptate conjugated anti-cAMP and d2 fluorophore-labelled cAMP were made in a supplied lysis buffer separately. Upon completion of the reaction, the cells were lysed with equal volume of the d2-cAMP solution and anti-cAMP solution. After a 1 h room temperature incubation, time-resolved fluorescence intensity was measured using the Envision (Perkin-Elmer) at 400 nm excitation and dual emission at 590 nm and 665 nm. A calibration curve was constructed with an external cAMP standard at concentrations ranging from 2.7 μM to 0.1 μM by plotting the fluorescent intensity ratio from 665 nm emission to the intensity from the 590 nm emission against cAMP concentrations. The potency and activity of a compound to […] cAMP production was then determined by fitting to a 4-parametric logistic equation from a plot of cAMP level versus compound concentrations.
The examples disclosed below were tested in the human RXFP1 (hRXFP1) HEK293 cAMP assay described above and found to have agonist activity. Tables 1-3, lists EC50 values in the hRXFP1 HEK293 cAMP assay measured for the examples.

[1] abbreviates: phenylcyclohexyl (tetraline) examples.

Regarding `COc1ccc(C2=NOC3CNCC23)cc1C(=O)Nc1cc2c(cc1C(=O)Nc1ccc(F)c(C(F)(F)F)c1)CCCC2` (mixture of isomers) [Example 15, N-(4-fluoro-3-(trifluoromethyl)phenyl)-3-(2-methoxy-5-(3a,5,6,6a-tetrahydro-4H-pyrrolo[3,4-d]isoxazol-3-yl)benzamido)-5,6,7,8-tetrahydronaphthalene-2-carboxamide], the EC50 – broadly, the midpoint of the concentration-response curve – under setting [1] was determined as 3700 nM.
As for `COc1ccc(-c2cc(C(=O)O)ccc2F)cc1C(=O)Nc1cc2c(cc1C(=O)Nc1ccc(F)c(C(F)(F)F)c1)CCC2O` (racemic) [Example 29, 6-fluoro-3′-((6-((4-fluoro-3-(trifluoromethyl)phenyl)carbamoyl)-3-hydroxy-2,3-dihydro-1H-inden-5-yl)carbamoyl)-4′-methoxy-[1,1′-biphenyl]-3-carboxylic acid], the EC50 (phenylcyclopentyl examples) came out at 2700 nM. This counts as single-digit micromolar.
With `COc1ccc(-c2cc(C(NC(=O)C3CCOCC3)C(=O)O)ccc2F)cc1C(=O)Nc1cc2c(cc1C(=O)Nc1ccc(F)c(C(F)(F)F)c1)CCCC2` (single isomer, unassigned) [Example 2, 2-(6-fluoro-3′-((3-((4-fluoro-3-(trifluoromethyl)phenyl)carbamoyl)-5,6,7,8-tetrahydro-naphthalen-2-yl)carbamoyl)-4′-methoxy-[1,1′-biphenyl]-3-yl)-2-(tetrahydro-2H-pyran-4-carboxamido)acetic acid], the EC50 under setting [1] is 1.8 nM.
Same read-out and setting: the same measure for `COc1ccc(-c2cc(C(N)C(=O)O)ccc2F)cc1C(=O)Nc1cc2c(cc1C(=O)Nc1ccc(F)c(C(F)(F)F)c1)CCCC2` (single isomer, unassigned) [Example 3, 2-amino-2-(6-fluoro-3′-((3-((4-fluoro-3-(trifluoromethyl)phenyl)carbamoyl)-5,6,7,8-tetrahydronaphthalen-2-yl)carbamoyl)-4′-methoxy-[1,1′-biphenyl]-3-yl)acetic acid]: 2300 nM; for `COc1ccc(C2=NOC3CC(CO)CC23)cc1C(=O)Nc1cc2c(cc1C(=O)Nc1ccc(F)c(C(F)(F)F)c1)CCCC2` (single isomer, unassigned) [Example 13, N-(4-fluoro-3-(trifluoromethyl)phenyl)-3-(5-(5-(hydroxymethyl)-3a,5,6,6a-tetrahydro-4H-cyclopenta[d]-isoxazol-3-yl)-2-methoxybenzamido)-5,6,7,8-tetrahydronaphthalene-2-carboxamide]: 19 nM; for `COc1ccc(C2=NOC3CC(CO)CC23)cc1C(=O)Nc1cc2c(cc1C(=O)Nc1ccc(F)c(C(F)(F)F)c1)CCCC2` (single isomer, unassigned) [Example 14, N-(4-fluoro-3-(trifluoromethyl)phenyl)-3-(5-(5-(hydroxymethyl)-3a,5,6,6a-tetrahydro-4H-cyclopenta[d]-isoxazol-3-yl)-2-methoxybenzamido)-5,6,7,8-tetrahydronaphthalene-2-carboxamide]: 82 nM.
The compound `COc1ccc(C2=NOC3CC(CO)CC23)cc1C(=O)Nc1cc2c(cc1C(=O)Nc1ccc(F)c(C(F)(F)F)c1)CCC2=O` (single isomer, unassigned) [Example 27, N-(4-fluoro-3-(trifluoromethyl)phenyl)-6-(5-(5-(hydroxymethyl)-3a,5,6,6a-tetrahydro-4H-cyclopenta[d]isoxazol-3-yl)-2-methoxybenzamido)-1-oxo-2,3-dihydro-1H-indene-5-carboxamide] yielded an EC50 (phenylcyclopentyl examples) of 34 nM.
Same read-out and setting: the same measure for `COc1ccc(C2=NOC3CC(CO)CC23)cc1C(=O)Nc1cc2c(cc1C(=O)Nc1ccc(F)c(C(F)(F)F)c1)CCC2=O` (single isomer, unassigned) [Example 28, N-(4-fluoro-3-(trifluoromethyl)phenyl)-6-(5-(5-(hydroxymethyl)-3a,5,6,6a-tetrahydro-4H-cyclopenta[d]isoxazol-3-yl)-2-methoxybenzamido)-1-oxo-2,3-dihydro-1H-indene-5-carboxamide]: 160 nM.
For `COc1ccc(-c2cc(C(=O)O)ccc2F)cc1C(=O)Nc1cc2c(cc1C(=O)Nc1ccc(F)c(C(F)(F)F)c1)CCCC2` [Example 1, 6-fluoro-3′-((3-((4-fluoro-3-(trifluoromethyl)phenyl)carbamoyl)-5,6,7,8-tetrahydronaphthalen-2-yl)carbamoyl)-4′-methoxy-[1,1′-biphenyl]-3-carboxylic acid], the EC50 under setting [1] is 390 nM.
Still for that read-out and setting: the same measure for `COc1ccc(-c2cc([C@H](O)C(F)(F)F)ccc2F)cc1C(=O)Nc1cc2c(cc1C(=O)Nc1ccc(F)c(C(F)(F)F)c1)CCCC2` [Example 4, (S)—N-(4-fluoro-3-(trifluoromethyl)phenyl)-3-(2′-fluoro-4-methoxy-5′-(2,2,2-trifluoro-1-hydroxyethyl)-[1,1′-biphenyl]-3-carboxamido)-5,6,7,8-tetrahydronaphthalene-2-carboxamide]: 860 nM; for `COc1ccc(-c2cc([C@H](OC(=O)Nc3ccccc3)C(F)(F)F)ccc2F)cc1C(=O)Nc1cc2c(cc1C(=O)Nc1ccc(F)c(C(F)(F)F)c1)CCCC2` [Example 5, (S)-2,2,2-trifluoro-1-(6-fluoro-3′-((3-((4-fluoro-3-(trifluoromethyl)phenyl)carbamoyl)-5,6,7,8-tetrahydronaphthalen-2-yl)carbamoyl)-4′-methoxy-[1,1′-biphenyl]-3-yl)ethyl phenylcarbamate]: 33 nM.
Under setting [1], `COc1ccc(-c2cc([C@H](OC(=O)NC3CCC3)C(F)(F)F)ccc2F)cc1C(=O)Nc1cc2c(cc1C(=O)Nc1ccc(F)c(C(F)(F)F)c1)CCCC2` [Example 6, (S)-2,2,2-trifluoro-1-(6-fluoro-3′-((3-((4-fluoro-3-(trifluoromethyl)phenyl)carbamoyl)-5,6,7,8-tetrahydronaphthalen-2-yl)carbamoyl)-4′-methoxy-[1,1′-biphenyl]-3-yl)ethyl cyclobutylcarbamate] displayed an EC50 of 15 nM. Compared with the last compound, the EC50 is about 2.2-fold lower.
Same read-out and setting: the same measure for `COc1ccc(-c2cc([C@H](OC(=O)NC3CC(F)(F)C3)C(F)(F)F)ccc2F)cc1C(=O)Nc1cc2c(cc1C(=O)Nc1ccc(F)c(C(F)(F)F)c1)CCCC2` [Example 7, (S)-2,2,2-trifluoro-1-(6-fluoro-3′-((3-((4-fluoro-3-(trifluoro-methyl)phenyl)carbamoyl)-5,6,7,8-tetra-hydronaphthalen-2-yl)carbamoyl)-4′-methoxy-[1,1′-biphenyl]-3-yl)ethyl (3,3-difluorocyclo-butyl)carbamate]: 62 nM.
Same read-out and setting: the same measure for `COc1ccc(-c2cc(C(=O)NCC3CCC3)ccc2F)cc1C(=O)Nc1cc2c(cc1C(=O)Nc1ccc(F)c(C(F)(F)F)c1)CCCC2` [Example 8, N3′-(cyclobutyl-methyl)-6′-fluoro-N3-(3-((4-fluoro-3-(trifluoromethyl)phenyl)carbamoyl)-5,6,7,8-tetrahydro-naphthalen-2-yl)-4-methoxy-[1,1′-biphenyl]-3,3′-dicarboxamide]: 4200 nM.
The compound `COc1ccc(-c2cc(CC(=O)NCC3CCC3)ccc2F)cc1C(=O)Nc1cc2c(cc1C(=O)Nc1ccc(F)c(C(F)(F)F)c1)CCCC2` [Example 9, 3-(5′-(2-((cyclobutylmethyl)amino)-2-oxoethyl)-2′-fluoro-4-methoxy-[1,1′-biphenyl]-3-carboxamido)-N-(4-fluoro-3-(trifluoromethyl)phenyl)-5,6,7,8-tetrahydronaphthalene-2-carboxamide] returned an EC50 under setting [1] of 22 nM.
Same read-out and setting: the same measure for `COc1ccc(C2=NOC3CC(CO)CC23)cc1C(=O)Nc1cc2c(cc1C(=O)Nc1ccc(F)c(C(F)(F)F)c1)CCCC2` (stereo not shown) [Example 12, N-(4-fluoro-3-(trifluoromethyl)phenyl)-3-(5-(5-(hydroxymethyl)-3a,5,6,6a-tetrahydro-4H-cyclopenta[d]-isoxazol-3-yl)-2-methoxybenzamido)-5,6,7,8-tetrahydronaphthalene-2-carboxamide]: 290 nM.

(Values after patent US20260265208A1, “TETRALINE, PHENYLCYCLOBUTANE AND PHENYLCYCLOPENTANE ANALOGS AS RXFP1 AGONISTS” (BRISTOL-MYERS SQUIBB COMPANY, priority 2021, published 2026).)
